Assay results taken from US20080182811A1, “METABOTROPIC GLUTAMATE RECEPTOR ACTIVATOR” (Ajinomoto Co., Inc., priority 2005, published 2008).
Blank lines part the entries; values can stand above or below the molecule they belong to.

Molecular target: T1, group II metabotropic glutamate receptor subtype 3 (mGluR3) (Homo sapiens, UniProt Q14832)
T1 construct: expressed in transfected cells; host or cells: Xenopus oocytes injected with cRNAs of mGluR3, GIRK1 and GIRK4
Test: Electrophysiological measurement of response current in Xenopus oocytes injected with mGluR3, GIRK1 and GIRK4 cRNAs
Type: cell-based
Conditions: for mgluR3 (receptor activation by amino acid): amino acid alone, 1 mM, oocytes injected with mGluR3, GIRK1, GIRK4 cRNAs

T1 sequence (Q14832 23-879): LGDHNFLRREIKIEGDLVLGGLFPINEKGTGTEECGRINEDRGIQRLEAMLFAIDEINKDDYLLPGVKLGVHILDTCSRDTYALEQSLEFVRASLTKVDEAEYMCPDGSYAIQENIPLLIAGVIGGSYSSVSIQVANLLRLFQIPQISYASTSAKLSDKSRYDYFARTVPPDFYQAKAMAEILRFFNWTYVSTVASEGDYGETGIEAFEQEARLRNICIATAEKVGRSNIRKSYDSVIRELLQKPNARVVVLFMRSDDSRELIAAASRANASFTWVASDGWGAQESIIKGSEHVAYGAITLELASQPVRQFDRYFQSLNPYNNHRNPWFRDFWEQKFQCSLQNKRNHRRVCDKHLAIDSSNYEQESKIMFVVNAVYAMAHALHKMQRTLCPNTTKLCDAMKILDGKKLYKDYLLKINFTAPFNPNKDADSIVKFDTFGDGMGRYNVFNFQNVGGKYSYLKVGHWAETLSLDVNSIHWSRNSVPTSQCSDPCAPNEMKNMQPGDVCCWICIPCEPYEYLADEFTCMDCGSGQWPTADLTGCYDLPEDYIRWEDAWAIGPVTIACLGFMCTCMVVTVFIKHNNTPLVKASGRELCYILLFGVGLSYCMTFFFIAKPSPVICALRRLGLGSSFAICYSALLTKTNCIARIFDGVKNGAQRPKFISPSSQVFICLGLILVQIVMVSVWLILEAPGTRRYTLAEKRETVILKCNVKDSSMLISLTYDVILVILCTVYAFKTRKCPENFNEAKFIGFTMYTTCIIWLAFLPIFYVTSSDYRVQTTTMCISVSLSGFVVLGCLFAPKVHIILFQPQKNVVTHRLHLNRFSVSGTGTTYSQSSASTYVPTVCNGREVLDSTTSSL

SMILES: CC[C@H](C)[C@H](N)C(=O)O [Isoleucine, isoleucine]
mgluR3 (receptor activation by amino acid): Activated
mgluR3 (receptor activation by amino acid) (listed as isoleucine): effects of enhancing the activation

SMILES: N[C@@H](Cc1c[nH]cn1)C(=O)O [Histidine, histidine]
mgluR3 (receptor activation by amino acid): Activated
mgluR3 (receptor activation by amino acid) (listed as histidine): effects of enhancing the activation

SMILES: O=C(O)[C@@H]1C[C@@H](O)CN1 [Hydroxyproline, hydroxyproline]
mgluR3 (receptor activation by amino acid): Activated
mgluR3 (receptor activation by amino acid) (listed as hydroxyproline): effects of enhancing the activation

SMILES: N=C(N)NCCC[C@H](N)C(=O)O [Arginine, arginine]
mgluR3 (receptor activation by amino acid): Activated
mgluR3 (receptor activation by amino acid) (listed as arginine): effects of enhancing the activation

SMILES: NC(=O)C[C@H](N)C(=O)O [Asparagine, asparagine]
mgluR3 (receptor activation by amino acid): Activated
mgluR3 (receptor activation by amino acid) (listed as asparagine): effects of enhancing the activation

SMILES: NC(=O)CC[C@H](N)C(=O)O [Glutamine, glutamine]
mgluR3 (receptor activation by amino acid): Activated
mgluR3 (receptor activation by amino acid) (listed as glutamine): effects of enhancing the activation

SMILES: NCC(=O)O [Glycine, glycine]
mgluR3 (receptor activation by amino acid): Activated
mgluR3 (receptor activation by amino acid) (listed as glycine): effects of enhancing the activation

SMILES: C[C@H](N)C(=O)O [Alanine, alanine]
mgluR3 (receptor activation by amino acid): Activated
mgluR3 (receptor activation by amino acid) (listed as alanine): effects of enhancing the activation

The next lines start with the values.

mgluR3 (receptor activation by amino acid): Activated
mgluR3 (receptor activation by amino acid) (listed as proline): effects of enhancing the activation
SMILES: O=C(O)[C@@H]1CCCN1 [Proline, proline]

mgluR3 (receptor activation by amino acid): Activated
mgluR3 (receptor activation by amino acid) (listed as serine): effects of enhancing the activation
SMILES: N[C@@H](CO)C(=O)O [Serine, serine]

mgluR3 (receptor activation by amino acid): Activated
mgluR3 (receptor activation by amino acid) (listed as tryptophan): effects of enhancing the activation
SMILES: N[C@@H](Cc1c[nH]c2ccccc12)C(=O)O [Tryptophan, tryptophan]

mgluR3 (receptor activation by amino acid): Activated
mgluR3 (receptor activation by amino acid) (listed as tyrosine): effects of enhancing the activation
SMILES: N[C@@H](Cc1ccc(O)cc1)C(=O)O [Tyrosine, tyrosine]

mgluR3 (receptor activation by amino acid): Activated
mgluR3 (receptor activation by amino acid) (listed as taurine): effects of enhancing the activation
SMILES: NCCS(=O)(=O)O [Taurine, taurine]

mgluR3 (receptor activation by amino acid): Activated
mgluR3 (receptor activation by amino acid) (listed as threonine): effects of enhancing the activation
SMILES: C[C@@H](O)[C@H](N)C(=O)O [Threonine, threonine]

mgluR3 (receptor activation by amino acid): Activated
mgluR3 (receptor activation by amino acid) (listed as leucine): effects of enhancing the activation
effect of amino acid (response current value) with cation vs amino acid alone (coexistence with calcium ion (10 mM), glutamic acid 3 μM, aspartic acid 300 μM, leucine 1 mM, cysteine 1 mM, FIG. 7): enhanced
effect of amino acid (response current value) with nucleic acid and cation vs amino acid alone (coexistence with inosinic acid (1 mM) and calcium ion (10 mM), glutamic acid 3 μM, aspartic acid 300 μM, leucine 1 mM, cysteine 1 mM, FIG. 8): enhanced
effect of amino acid (response current value) with nucleic acid vs amino acid alone (coexistence with inosinic acid (1 mM), glutamic acid 3 μM, aspartic acid 300 μM, valine 1 mM, leucine 1 mM, FIG. 6): enhanced
SMILES: CC(C)C[C@H](N)C(=O)O [Leucine, leucine]

mgluR3 (receptor activation by amino acid): Activated
mgluR3 (receptor activation by amino acid) (listed as methionine): effects of enhancing the activation
SMILES: CSCC[C@H](N)C(=O)O [Methionine, methionine]

mgluR3 (receptor activation by amino acid): Activated
mgluR3 (receptor activation by amino acid) (listed as ornithine): effects of enhancing the activation
SMILES: NCCC[C@H](N)C(=O)O [Ornithine, ornithine]

mgluR3 (receptor activation by amino acid): Activated
mgluR3 (receptor activation by amino acid) (listed as lysine): effects of enhancing the activation
SMILES: NCCCC[C@H](N)C(=O)O [Lysine, lysine]

mgluR3 (receptor activation by amino acid): Activated
mgluR3 (receptor activation by amino acid) (listed as phenylalanine): effects of enhancing the activation
SMILES: N[C@@H](Cc1ccccc1)C(=O)O [Phenylalanine, phenylalanine]
